Patent publication US10494366B2, “Pesticidally active amide heterocyclic derivatives with sulphur containing substituents” (Syngenta Participations AG, priority 2014, dated 2019)

Columns and labels:
[1] = test system: Spodoptera littoralis (Egyptian cotton leaf worm); assay: Example B2: Spodoptera littoralis, systemic test via lettuce roots in agar; format: in vivo; conditions: 144 h, application rate 12.5 ppm, Spodoptera eggs, 6 days after infestation, read-out: control in at least one of the three categories (mortality, anti-feedancy or growth inhibition)
Source text: Test compounds were applied by pipette from 10,000 ppm DMSO stock solutions into 24-well plates and mixed with agar. Lettuce seeds were placed on the agar and the multi well plate was closed by another plate which contains also agar. After 7 days the roots have absorbed the compound and the lettuce has grown into the lid plate. The lettuce leafs were now cut off into the lid plate. Spodoptera eggs were pipetted through a plastic stencil on a humid gel blotting paper and the plate closed with it. The samples were assessed for mortality, anti-feedant effect and growth inhibition in comparison to untreated samples 6 days after infestation.
The following compounds gave an effect of at least 80% control in at least one of the three categories (mortality, anti-feedancy or growth inhibition) at an application rate of 12.5 ppm: P2, P3, P8, P9, P11 and P17, P19, P20, P22, P23, P25, P26, P28, P30, P31, P32, P33, P40, P42, P43, P44, P45, P46, P47, P48, P49, P50, P51, P52, P53, P54, P60 and P61.

[2] = test system: Plutella xylostella (diamond back moth); assay: Example B3: Plutella xylostella, treated artificial diet; format: in vivo; conditions: 120 h, application rate 200 ppm, L2 larvae, 5 days after infestation, read-out: effect in at least one of the two categories (mortality or growth inhibition)
Protocol: (§1) 24-well microtiter plates with artificial diet were treated with aqueous test solutions prepared from 10,000 ppm DMSO stock solutions by pipetting. After drying, the plates were infested with L2 larvae (10 to 15 per well). The samples were assessed for mortality and growth inhibition in comparison to untreated samples 5 days after infestation.

[3] = test system: Tetranychus urticae (two-spotted spider mite); assay: Example B8: Tetranychus urticae, sprayed bean leaf discs; format: in vivo; conditions: foliar, 192 h, application rate 200 ppm, mixed population (mobile stages), 8 days after infestation
Source text: Bean leaf discs on agar in 24-well microtiter plates were sprayed with aqueous test solutions prepared from 10,000 ppm DMSO stock solutions. After drying the leaf discs were infested with a mite population of mixed ages.

[4] = test system: Myzus persicae (green peach aphid); assay: Example B5: Myzus persicae, sprayed sunflower leaf discs; format: in vivo; conditions: foliar, 144 h, application rate 200 ppm, aphid population of mixed ages, 6 days after infestation
Protocol: Sunflower leaf discs were placed on agar in a 24-well microtiter plate and sprayed with aqueous test solutions prepared from 10,000 ppm DMSO stock solutions. After drying, the leaf discs were infested with an aphid population of mixed ages. The samples were assessed for mortality 6 days after infestation.

[5] = test system: Diabrotica balteata (corn root worm); assay: Example B4: Diabrotica balteata, sprayed maize sprouts; format: in vivo; conditions: 96 h, application rate 200 ppm, L2 larvae, 4 days after infestation, read-out: effect in at least one of the two categories (mortality or growth inhibition)
Protocol: as §1, with “Maize sprouts, placed on an agar layer in 24-well” for “24-well”, “plates” for “plates with artificial diet”, “spraying.” for “pipetting.”, “(6” for “(10”, “10” for “15”, “4” for “5”

[6] = test system: Euschistus heros (neotropical brown stink bug); assay: Example B6: Euschistus heros, sprayed soybean leaf; format: in vivo; conditions: 120 h, application rate 200 ppm, N-2 nymphs, 5 days after infestation
Source text: Soybean leaf on agar in 24-well microtiter plates were sprayed with aqueous test solutions prepared from 10,000 ppm DMSO stock solutions. After drying the leaf were infested with N-2 nymphs.

[7] = test system: Spodoptera littoralis (Egyptian cotton leaf worm); assay: Example B1: Spodoptera littoralis, sprayed cotton leaf discs; format: in vivo; conditions: foliar, 72 h, application rate 200 ppm, L1 larvae, 3 days after infestation, read-out: control in at least one of the three categories (mortality, anti-feedancy or growth inhibition)
Protocol: Cotton leaf discs were placed on agar in 24-well microtiter plates and sprayed with aqueous test solutions prepared from 10,000 ppm DMSO stock solutions. After drying the leaf discs were infested with five L1 larvae. The samples were assessed for mortality, anti-feedant effect, and growth inhibition in comparison to untreated samples 3 days after infestation. Control of Spodoptera littoralis by a test sample is when at least one of mortality, anti-feedant effect, and growth inhibition is higher than the untreated sample.

[8] = test system: Myzus persicae (green peach aphid); assay: Example B7: Myzus persicae, systemic test with roots of pea seedlings in test solution; format: in vivo; conditions: 144 h, test rate 24 ppm, aphid population of mixed ages, 6 days
Source text: Roots of pea seedlings infested with an aphid population of mixed ages were placed directly in the aqueous test solutions prepared from 10,000 DMSO stock solutions.

[9] = test system: Bemisia tabaci (cotton white fly); assay: Example B10: Bemisia tabaci, sprayed cotton leaf discs; format: in vivo; conditions: foliar, 144 h, application rate 200 ppm, adult white flies, 6 days after incubation
Protocol: Cotton leaf discs were placed on agar in 24-well microtiter plates and sprayed with aqueous test solutions prepared from 10,000 ppm DMSO stock solutions. After drying the leaf discs were infested with adult white flies. The samples were checked for mortality 6 days after incubation.

melting point | Compound | percent control (mortality, anti-feedant effect or growth inhibition) at 12.5 ppm [1] | percent effect (mortality or growth inhibition) at 200 ppm [2] | mortality at 200 ppm [3] | mortality at 200 ppm [4] | percent effect (mortality or growth inhibition) at 200 ppm [5] | mortality at 200 ppm [6] | percent control (mortality, anti-feedant effect or growth inhibition) at 200 ppm [7] | mortality at 24 ppm [8] | mortality at 200 ppm [9]
147 to 148 °C | CCSc1cc(-c2ccc(Cl)cc2)cnc1C(=O)/N=c1\sc(C(F)(F)F)nn1C | – | – | – | – | – | – | – | – | –
219 to 221 °C | CCSc1cc(-n2ccc(C(F)(F)F)n2)cnc1C(=O)/N=c1\sc(C(F)(F)C(F)(F)F)nn1C | – | – | – | – | – | – | – | – | –
173 to 175 °C | CCSc1cc(-c2ccc(C(F)(F)F)cc2)cnc1C(=O)/N=c1\sc(C(F)(F)C(F)(F)F)nn1C | – | – | – | – | – | – | – | – | –
140 to 142 °C | CCS(=O)(=O)c1cc(-c2ccc(C(F)(F)F)cc2)ccc1C(=O)/N=c1\sc(C(F)(F)F)nn1C | – | – | – | – | – | – | – | – | –
184 to 186 °C | CCS(=O)(=O)c1cc(-c2cccc(Cl)c2)cnc1C(=O)/N=c1\sc(C(F)(F)F)nn1C | – | – | – | – | – | – | – | – | –
– | CCS(=O)(=O)c1cc(-c2ccc(C(F)(F)F)cc2)cnc1C(=O)/N=c1\sc(C(F)(F)C(F)(F)F)nn1C [Compound P8] | ≥ 80% | ≥ 80% | ≥ 80% | ≥ 80% | ≥ 80% | ≥ 80% | ≥ 80% | – | –
– | CCS(=O)(=O)c1cc(-c2ccc(Cl)cc2)cnc1C(=O)/N=c1\sc(C(F)(F)C(F)(F)F)nn1C [Compound P11] | ≥ 80% | ≥ 80% | – | ≥ 80% | ≥ 80% | ≥ 80% | ≥ 80% | – | –
– | CCS(=O)(=O)c1cc(-c2ncccn2)cnc1C(=O)/N=c1\ccc(SC(F)(F)F)cn1C [Compound P17, (N)-3-ethylsulfonyl-N-[1-methyl-5-(trifluoromethylsulfanyl)-2-pyridylidene]-5-pyrimidin-2-yl-pyridine-2-carboxamide] | ≥ 80% | ≥ 80% | – | ≥ 80% | ≥ 80% | ≥ 80% | ≥ 80% | ≥ 80% | –
– | CCS(=O)(=O)c1cc(C2(C#N)CC2)cnc1C(=O)/N=c1\sc(C(F)(F)F)nn1C [Compound P19] | ≥ 80% | ≥ 80% | – | ≥ 80% | ≥ 80% | ≥ 80% | ≥ 80% | – | –
– | CCS(=O)(=O)c1cc(-c2cccc3c2OC(F)(F)O3)cnc1C(=O)/N=c1\sc(C(F)(F)F)nn1C [Compound P29] | – | ≥ 80% | ≥ 80% | – | ≥ 80% | ≥ 80% | ≥ 80% | – | –
– | CCS(=O)(=O)c1cc(-c2cccc(OC(F)(F)F)c2)cnc1C(=O)/N=c1\sc(C(F)(F)F)nn1C [Compound P31] | ≥ 80% | ≥ 80% | ≥ 80% | – | ≥ 80% | – | ≥ 80% | – | –
– | CCS(=O)(=O)c1cc(-c2cncs2)cnc1C(=O)/N=c1\sc(C(F)(F)F)nn1C [Compound P39] | – | – | – | – | ≥ 80% | – | ≥ 80% | – | ≥ 80%
– | CCS(=O)(=O)c1cc(-c2nccc(C(F)(F)F)n2)cnc1C(=O)/N=c1\sc(C(F)(F)F)nn1C [Compound P40] | ≥ 80% | ≥ 80% | – | ≥ 80% | ≥ 80% | ≥ 80% | ≥ 80% | – | –
– | CCS(=O)(=O)c1cc(-c2ncccn2)cnc1C(=O)/N=c1\sc(C(F)(F)F)nn1C [Compound P42] | ≥ 80% | ≥ 80% | – | ≥ 80% | ≥ 80% | ≥ 80% | ≥ 80% | ≥ 80% | –
– | CCS(=O)(=O)c1cc(-c2ccc(Cl)c(Cl)n2)cnc1C(=O)/N=c1\sc(C(F)(F)F)nn1C [Compound P45] | ≥ 80% | ≥ 80% | ≥ 80% | ≥ 80% | ≥ 80% | ≥ 80% | ≥ 80% | – | –
– | CCS(=O)(=O)c1cc(-c2ncc(Cl)cc2Cl)cnc1C(=O)/N=c1\sc(C(F)(F)F)nn1C [Compound P46] | ≥ 80% | ≥ 80% | – | ≥ 80% | ≥ 80% | ≥ 80% | ≥ 80% | – | –
– | CCS(=O)(=O)c1cc(-c2ccccn2)cnc1C(=O)/N=c1\sc(C(F)(F)F)nn1C [Compound P51] | ≥ 80% | ≥ 80% | – | ≥ 80% | ≥ 80% | ≥ 80% | ≥ 80% | – | –
– | CCS(=O)(=O)c1cc(-c2ccnc(F)c2)cnc1C(=O)/N=c1\sc(C(F)(F)F)nn1C [Compound P54] | ≥ 80% | ≥ 80% | – | ≥ 80% | ≥ 80% | ≥ 80% | ≥ 80% | – | –
– | CCS(=O)(=O)c1cc(-c2ncc(Cl)s2)cnc1C(=O)/N=c1\sc(C(F)(F)F)nn1C [Compound P57] | – | ≥ 80% | – | – | ≥ 80% | – | ≥ 80% | – | ≥ 80%
– | CCS(=O)(=O)c1cc(C2CC2)cnc1C(=O)/N=c1\sc(C(F)(F)F)nn1C [Compound P63] | – | ≥ 80% | – | ≥ 80% | ≥ 80% | ≥ 80% | ≥ 80% | ≥ 80% | –
– | CCS(=O)(=O)c1cc(-c2cc(C(F)(F)F)ccn2)cnc1C(=O)/N=c1\sc(C(F)(F)F)nn1C [Compound P70] | – | ≥ 80% | ≥ 80% | – | ≥ 80% | – | ≥ 80% | – | –
